US7691904B2, “pH sensitive prodrugs of 2,6-diisopropylphenol” (Auspex Pharmaceuticals, Inc, priority 2003, dated 2010)

Key:
[1] = tested on: Female mice; assay: In-vivo induction of anesthesia (graded sedation level after IP injection)
Procedure: Prodrugs were formulated as aqueous isotonic solutions at pH 7.4 in sterile water before administration to animals. Female mice were obtained from Charles River Laboratories (Wilmington, Mass.). The volume of injection was set at […] and animals were dosed IP at 100 mg/kg, 125 mg/kg, 150 mg/kg and 200 mg/kg. The monitoring of distinguishable levels of sedation started immediately after an injection and was continued for a 2-h period post-injection. The sedation level was graded according to the behavioral and reflex activity of animals injected with progressively increasing doses of each compound. Animals were graded as alert and normal when there was no observable change in their behavior; alert with decreased motor activity when ataxia with some ability to walk was observed; and awake and recumbent when loss of righting reflex occurred. Animals reaching somnolence but retaining response to painful stimuli (toe or tail pinch) were graded as sedated with normal reflexes, whereas animals that lost response to painful stimuli were graded as sedated with decreased reflexes (anesthetic level of sedation). Death resulting from the overdose was also recorded as a last level.

[2] = pH stability in pH=4.1 sodium acetate buffer, analyzed by LC-MS; format: physicochemical; conditions: 100 mg in 10 mL pH=4.1 sodium acetate buffer, ambient temperature, 48 hours
Procedure: A solution was prepared by dissolving 100 mg of N-(2-Piperidin-1-yl-ethyl)-succinamic acid 2,6-diisopropylphenyl ester hydrochloride in 10 mL of pH=4.1 sodium acetate buffer. The buffer was prepared by adding NaOH to a 20% aqueous acetic acid solution until the desired pH was reached. The solution was incubated at ambient temperature and analyzed by LC-MS after 48 hours.

SMILES | Duration of anesthesia ([1]; 100 mg/kg) | Full anesthesia ([1]; 100 mg/kg) | End of effect (time post injection, in parentheses) ([1]; 100 mg/kg, time post injection) | Onset of sedation ([1]; 100 mg/kg, time post injection) | Duration of sedation ([1]; 125 mg/kg) | Full anesthesia ([1]; 125 mg/kg) | End of sedation (time post injection, in parentheses) ([1]; 125 mg/kg, time post injection) | Onset of sedation ([1]; 125 mg/kg, time post injection) | Duration of anesthesia ([1]; 200 mg/kg) | End of anesthesia (time post injection, in parentheses) ([1]; 200 mg/kg, time post injection) | Full anesthesia ([1]; 200 mg/kg, time post injection) | Onset of sedation ([1]; 200 mg/kg, time post injection) | Decomposition in solution [2] | Duration of anesthesia ([1]; 150 mg/kg) | End of anesthesia (time post injection, in parentheses) ([1]; 150 mg/kg, time post injection) | Full anesthesia ([1]; 150 mg/kg, time post injection) | Onset of sedation ([1]; 150 mg/kg, time post injection)
CC(C)c1cccc(C(C)C)c1OC(=O)CCC(=O)NCCN1CCCCC1.Cl [N-(2-piperidin-1-yl-ethyl)-succinamic acid 2,6-diisopropylphenyl ester hydrochloride] | 11 min | not reached | 13 min | 2 min | 13 min | not reached | 15 min | 2 min | 12 min | 16 min | 5 min | 2 min | No trace of decomposition |  |  |  | 
CC(C)c1cccc(C(C)C)c1OC(=O)CCC(=O)NCCN1CCCC1.Cl [N-(2-pyrrolidin-1-yl-ethyl)-succinamic acid 2,6-diisopropylphenyl ester hydrochloride] |  |  |  |  |  |  |  |  | 21 min | 25 min | 4 min | 2 min |  | 10 min | 14 min | 4 min | 2 min
